Data taken from ChEMBL document CHEMBL1201862, “PubChem BioAssay data set” (2004).
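Method: 48-hour compound exposure of cells in 96-well plates, five concentrations, linear interpolation of endpoints. GI50: concentration for 50% inhibition of growth.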 Activity calls are given as the source filed them. No stated cut-off is given here; in the data, active = GI50 up to about 1.1 µM and inactive = higher.

Tests used:
Test in all cases: NCI-60 cell line screen, 48 h
[1] = tested on: UO-31
[2] = tested on: DMS-114
[3] = tested on: LOX IMVI
[4] = tested on: Malme-3M
[5] = tested on: DMS-273
[6] = tested on: MOLT-4
[7] = tested on: SN12C
[8] = tested on: IGROV-1
[9] = tested on: HL-60
[10] = tested on: HCT-116
[11] = tested on: SK-OV-3
[12] = tested on: 786-0
[13] = tested on: NCI-H460
[14] = tested on: DLD-1
[15] = tested on: CCRF-CEM
[16] = tested on: RPMI-8226
[17] = tested on: RXF 631
[18] = tested on: LXFL 529
[19] = tested on: A498
[20] = tested on: OVCAR-5
[21] = tested on: ACHN
[22] = tested on: SK-MEL-2
[23] = tested on: NCI-H522
[24] = tested on: HOP-18
[25] = tested on: SNB-19
[26] = tested on: HOP-62
[27] = tested on: SNB-75
[28] = tested on: U-251
[29] = tested on: SK-MEL-5
[30] = tested on: HCC 2998
[31] = tested on: A549
[32] = tested on: M14
[33] = tested on: UACC-62
[34] = tested on: RXF 393
[35] = tested on: EKVX
[36] = tested on: SF-268
[37] = tested on: OVCAR-4
[38] = tested on: SR
[39] = tested on: CAKI-1
[40] = tested on: M19-MEL
[41] = tested on: TK-10
[42] = tested on: UACC-257
[43] = tested on: NCI-H226
[44] = tested on: OVCAR-3
[45] = tested on: SK-MEL-28
[46] = tested on: K562
[47] = tested on: SF-539
[48] = tested on: HT-29
[49] = tested on: KM12
[50] = tested on: HOP-92
[51] = tested on: NCI-H23
[52] = tested on: XF498
[53] = tested on: SW-620
[54] = tested on: SF-295
[55] = tested on: HCT-15
[56] = tested on: KM-20L2
[57] = tested on: COLO 205

Measured: GI50

C[Si]1(C)C(c2ccccc2)=CC2C(c3ccccc3)(c3ccccc3)OC21c1ccccc1 (configuration not stated)
> 100 µM: [55]
inactive: [1] > 100 µM | [2] 97.9 µM | [3] > 100 µM | [4] 33.6 µM | [5] > 100 µM | [6] 58.1 µM | [7] > 100 µM | [8] > 100 µM | [9] 28.7 µM | [10] 28.2 µM | [11] > 100 µM | [12] > 100 µM | [13] > 100 µM | [14] > 100 µM | [15] > 100 µM | [16] 30.1 µM | [17] > 100 µM | [18] > 100 µM | [19] > 100 µM | [20] > 100 µM | [21] > 100 µM | [22] > 100 µM | [23] > 100 µM | [24] > 100 µM | [25] > 100 µM | [26] > 100 µM | [27] > 100 µM | [28] > 100 µM | [29] 63.7 µM | [30] > 100 µM | [31] > 100 µM | [32] 43.8 µM | [33] > 100 µM | [34] 47.5 µM | [35] > 100 µM | [36] > 100 µM | [37] > 100 µM | [38] 29.4 µM | [39] > 100 µM | [40] > 100 µM | [41] > 100 µM | [42] > 100 µM | [43] > 100 µM | [44] > 100 µM | [45] > 100 µM | [46] 87.7 µM | [47] > 100 µM | [48] 43 µM | [49] > 100 µM | [50] 48.5 µM | [51] > 100 µM | [52] > 100 µM | [53] > 100 µM | [54] 66.8 µM | [56] 92.9 µM | [57] > 100 µM
